Assays:
Format in all cases: in vivo
[1] = test system: cocklebur (Xanthium strumarium, XANST); assay: Greenhouse herbicide screen, pre-emerge application, phytotoxicity rating; settings: PRE emergent, 14 days after application, rating scale 0-100
How it was run: (§1)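 Rating: 0–100 scale, 14 DAA; 100 = complete plant death. Spray: acetone, 187 l/ha, 15–1000 g ai/ha, track sprayer. Timing: pre-emerge 1 d after sowing; post-emerge at 2–3 leaves.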

[2] = test system: large crabgrass (Digitaria sanguinalis, DIGSA); assay: as above; settings: PRE emergent, 14 days after application, rating scale 0-100
How it was run: as §1

[3] = test system: johnsongrass (Sorghum halepense, SORHA); assay: as above; settings: PRE emergent, 14 days after application, rating scale 0-100
How it was run: as §1

[4] = test system: redroot pigweed (Amaranthus retrofiexus, AMARE); assay: as above; settings: PRE emergent, 14 days after application, rating scale 0-100
How it was run: as §1

[5] = test system: velvetleaf (Abutilon theophrasti, ABUTH); assay: as above; settings: PRE emergent, 14 days after application, rating scale 0-100
How it was run: as §1

[6] = test system: green foxtail (Setaria viridis, SETVI); assay: as above; settings: PRE emergent, 14 days after application, rating scale 0-100
How it was run: as §1

[7] = test system: sicklepod (Cassia obtusifolia, CASOB); assay: as above; settings: PRE emergent, 14 days after application, rating scale 0-100
How it was run: as §1

[8] = test system: common ragweed (Ambrosia artemisiifolia L., AMBEL); assay: as above; settings: PRE emergent, 14 days after application, rating scale 0-100
How it was run: as §1

[9] = test system: barnyardgrass (Echinochloa crus-galli, ECHCG); assay: as above; settings: PRE emergent, 14 days after application, rating scale 0-100
How it was run: as §1

[10] = test system: ivyleaf morningglory (Ipomoea hederacea, IPOHE); assay: as above; settings: PRE emergent, 14 days after application, rating scale 0-100
How it was run: as §1

[11] = test system: lambsquarters (Chenopodium album, CHEAL); assay: as above; settings: PRE emergent, 14 days after application, rating scale 0-100
How it was run: as §1

[12] = test system: field corn (Zea mays L., var. Dekalb 535, CORN); assay: Greenhouse herbicide screen, post-emerge application, crop damage rating; settings: POST emergent, 14 days after application, scale 0-100
Source text: (§2) A standard greenhouse herbicide activity screening system was used to evaluate the herbicidal efficacy and crop safety of these test compounds. Seven broadleaf weed species including redroot pigweed (Amaranthus retrofiexus, AMARE), velvetleaf (Abutilon theophrasti, ABUTH), sicklepod (Cassia obtusifolia, CASOB), ivyleaf morningglory (Ipomoea hederacea, IPOHE), lambsquarters (Chenopodium album, CHEAL), common ragweed (Ambrosia artemisiifolia L., AMBEL), and cocklebur (Xanthium strumarium, XANST) were used as test species. Four grass weed species including green foxtail (Setaria viridis, SETVI), barnyardgrass (Echinochloa crus-galli, ECHCG), johnsongrass (Sorghum halepense, SORHA), and large crabgrass (Digitaria sanguinalis, DIGSA) were also used. In addition, four crop species, field corn (Zea mays L., var. Dekalb 535, CORN), soybean (Glycine max L., var. Pella 86, SOY), upland rice (Oryza sp., var.Cocodrie, RICE) and wheat (Triticum aestivum L.) were included.
(§3) All plants were grown in 10 cm square plastic pots which were filled with a sandy loam soil mix. For pre-emerge tests, seeds were planted one day prior to application of the test compounds. For post-emerge tests, seeds were planted 8-21 days prior to the test to allow emergence and good foliage development prior to application of the test substances. At the time of the post-emerge application, plants of all species were usually at the 2-3 leaf stage of development.
(§4) All test compounds were dissolved in acetone and applied to the test units in a volume of 187 l/ha. Test materials were applied at rates ranging from 15 g ai/ha to 1000 g ai/ha using a track sprayer equipped with a TJ8001E even flow flat fan spray nozzle. Plants were arranged on a shelf so that the top of the canopy (post-emerge) or top of the soil surface (pre-emerge) was 40-45 cm below the nozzle. Pressurized air was used to force the test solution through the nozzle as it was mechanically advanced (via electrically driven chain drive) over the top of all test plants/pots. This application simulates a typical commercial field herbicide application.
(§5) Pre-emergence tests were top watered immediately after treatment to incorporate the test materials, then routinely top-watered for normal growth. Post-emerge test units were always bottom-watered.
(§6) At 14 days after application of the test materials, phytotoxicity ratings were recorded. A rating scale of 0-100 was used as previously described in Research Methods in Weed Science, 2nd edition, B. Truelove, Ed., Southern Weed Science Society, Auburn University, Auburn, Ala., 1977. Briefly, “0” corresponds to no damage and “100” corresponds to complete death of all plants in the test unit. This scale was used both to determine efficacy against weed species and damage to crop species. Herbicide activity data for various compounds of this invention, which are shown by compound No. in Tables 1-12, are shown in Tables 13 and 14.

[13] = test system: upland rice (Oryza sp., var.Cocodrie, RICE); assay: as above; settings: POST emergent, 14 days after application, scale 0-100
Source text: as §2, §3, §4, §5, §6

[14] = test system: cocklebur (Xanthium strumarium, XANST); assay: Greenhouse herbicide screen, post-emerge application, phytotoxicity rating; settings: POST emergent, 14 days after application, scale 0-100
How it was run: as §1

[15] = test system: large crabgrass (Digitaria sanguinalis, DIGSA); assay: as above; settings: POST emergent, 14 days after application, scale 0-100
How it was run: as §1

[16] = test system: johnsongrass (Sorghum halepense, SORHA); assay: as above; settings: POST emergent, 14 days after application, scale 0-100
How it was run: as §1

[17] = test system: redroot pigweed (Amaranthus retrofiexus, AMARE); assay: as above; settings: POST emergent, 14 days after application
How it was run: as §1

[18] = test system: velvetleaf (Abutilon theophrasti, ABUTH); assay: as above; settings: POST emergent, 14 days after application, scale 0-100
How it was run: as §1

[19] = test system: green foxtail (Setaria viridis, SETVI); assay: as above; settings: POST emergent, 14 days after application, scale 0-100
How it was run: as §1

[20] = test system: sicklepod (Cassia obtusifolia, CASOB); assay: as above; settings: POST emergent, 14 days after application, scale 0-100
How it was run: as §1

[21] = test system: common ragweed (Ambrosia artemisiifolia L., AMBEL); assay: as above; settings: POST emergent, 14 days after application, scale 0-100
How it was run: as §1

[22] = test system: barnyardgrass (Echinochloa crus-galli, ECHCG); assay: as above; settings: POST emergent, 14 days after application, scale 0-100
How it was run: as §1

[23] = test system: ivyleaf morningglory (Ipomoea hederacea, IPOHE); assay: as above; settings: POST emergent, 14 days after application, scale 0-100
How it was run: as §1

[24] = test system: lambsquarters (Chenopodium album, CHEAL); assay: as above; settings: POST emergent, 14 days after application, scale 0-100
How it was run: as §1

[25] = test system: field corn (Zea mays L., var. Dekalb 535, CORN); assay: Greenhouse herbicide screen, pre-emerge application, crop damage rating; settings: PRE emergent, 14 days after application, rating scale 0-100
Source text: as §2, §3, §4, §5, §6

[26] = test system: upland rice (Oryza sp., var.Cocodrie, RICE); assay: as above; settings: PRE emergent, 14 days after application, rating scale 0-100
Source text: as §2, §3, §4, §5, §6

With `CN(NC(=O)c1cc(-n2c(=O)cc(C(F)(F)F)n(C)c2=O)c(F)cc1Cl)c1ccccc1` [Compound 1-9] the “phytotoxicity rating XANST” value ([1]; 63 g ai/ha) was 20, the “phytotoxicity rating XANST” value ([1]; 250 g ai/ha) was 70 and the “phytotoxicity rating DIGSA” value ([2]; 63 g ai/ha) was 50. For the same molecule, the “phytotoxicity rating DIGSA” value ([2]; 250 g ai/ha) was 70, the “phytotoxicity rating SORHA” value ([3]; 63 g ai/ha) was 60 and the “phytotoxicity rating SORHA” value ([3]; 250 g ai/ha) was 99. The “phytotoxicity rating AMARE” value ([4]; 63 g ai/ha) was 100, the “phytotoxicity rating AMARE” value ([4]; 250 g ai/ha) was 100 and the “phytotoxicity rating ABUTH” value ([5]; 63 g ai/ha) was 95. For the same molecule, the “phytotoxicity rating ABUTH” value ([5]; 250 g ai/ha) was 100, the “phytotoxicity rating SETVI” value ([6]; 63 g ai/ha) was 40 and the “phytotoxicity rating SETVI” value ([6]; 250 g ai/ha) was 80. For the same molecule, the “phytotoxicity rating CASOB” value ([7]; 63 g ai/ha) was 30, the “phytotoxicity rating CASOB” value ([7]; 250 g ai/ha) was 90 and the “phytotoxicity rating AMBEL” value ([8]; 63 g ai/ha) was 50. The “phytotoxicity rating AMBEL” value ([8]; 250 g ai/ha) was 99, the “phytotoxicity rating ECHCG” value ([9]; 63 g ai/ha) was 40 and the “phytotoxicity rating ECHCG” value ([9]; 250 g ai/ha) was 70. For the same molecule, the “phytotoxicity rating IPOHE” value ([10]; 63 g ai/ha) was 60, the “phytotoxicity rating IPOHE” value ([10]; 250 g ai/ha) was 100 and the “phytotoxicity rating CHEAL” value ([11]; 63 g ai/ha) was 99. The “phytotoxicity rating CHEAL” value ([11]; 250 g ai/ha) was 100, the “crop damage rating CORN” value ([12]; 63 g ai/ha) was 75 and the “crop damage rating CORN” value ([12]; 250 g ai/ha) was 100. For the same molecule, the “crop damage rating RICE” value ([13]; 63 g ai/ha) was 45, the “crop damage rating RICE” value ([13]; 250 g ai/ha) was 50 and the “phytotoxicity rating XANST” value ([14]; 63 g ai/ha) was 100. For the same molecule, the “phytotoxicity rating XANST” value ([14]; 250 g ai/ha) was 100, the “phytotoxicity rating DIGSA” value ([15]; 63 g ai/ha) was 70 and the “phytotoxicity rating DIGSA” value ([15]; 250 g ai/ha) was 95. For the same molecule, the “phytotoxicity rating SORHA” value ([16]; 63 g ai/ha) was 75, the “phytotoxicity rating SORHA” value ([16]; 250 g ai/ha) was 99 and the “phytotoxicity rating AMARE” value ([17]; 63 g ai/ha, scale 0-100 (0 no damage, 100 complete death)) was 100. For the same molecule, the “phytotoxicity rating AMARE” value ([17]; 250 g ai/ha, scale 0-100) was 100, the “phytotoxicity rating ABUTH” value ([18]; 63 g ai/ha) was 100 and the “phytotoxicity rating ABUTH” value ([18]; 250 g ai/ha) was 100. The “phytotoxicity rating SETVI” value ([19]; 63 g ai/ha) was 60, the “phytotoxicity rating SETVI” value ([19]; 250 g ai/ha) was 95 and the “phytotoxicity rating CASOB” value ([20]; 63 g ai/ha) was 80. The “phytotoxicity rating CASOB” value ([20]; 250 g ai/ha) was 95, the “phytotoxicity rating AMBEL” value ([21]; 63 g ai/ha) was 99 and the “phytotoxicity rating AMBEL” value ([21]; 250 g ai/ha) was 100. The “phytotoxicity rating ECHCO” value ([22]; 63 g ai/ha) was 98, the “phytotoxicity rating ECHCO” value ([22]; 250 g ai/ha) was 100 and the “phytotoxicity rating IPOHE” value ([23]; 63 g ai/ha) was 100. For the same molecule, the “phytotoxicity rating IPOHE” value ([23]; 250 g ai/ha) was 100, the “phytotoxicity rating CHEAL” value ([24]; 63 g ai/ha) was 100 and the “phytotoxicity rating CHEAL” value ([24]; 250 g ai/ha) was 100. For the same molecule, the “crop damage rating CORN” value ([25]; 63 g ai/ha) was 10, the “crop damage rating CORN” value ([25]; 250 g ai/ha) was 75 and the “crop damage rating RICE” value ([26]; 63 g ai/ha) was 0. The “crop damage rating RICE” value ([26]; 250 g ai/ha) was 45.

Source: patent US6770597B2, “Benzohydrazide derivatives as herbicides and desiccant compositions containing them” (Ishihara Sangyo Kaisha, Ltd., priority 2002, dated 2004)
